{
  "source": "patent US20020147145A1",
  "about": "“Materials and methods relating to the degradation of Cdc25A in response to DNA damage” (priority 2000, published 2002)",
  "key": {"Cdc25A [1]": {"tested_on": "Cdc25A", "assay": "Cdc25A protein level and turnover by immunoblotting in UV-irradiated U-2-OS cells", "assay_type": "cell-based, human", "set-up": "UV-induced degradation of the endogenous Cdc25A protein: dose or concentration left out as unconfirmed"}, "Cdc25A [2]": {"tested_on": "Cdc25A", "assay": "Cdc25A phosphatase activity assay (activation of cyclin B1/Cdc2) on lysates of UV-irradiated U-2-OS cells", "assay_type": "cell-based, human", "set-up": "Cdc25A-associated phosphatase activity after UV: dose or concentration left out as unconfirmed"}, "Chk1": {"target": "Chk1 (Homo sapiens, UniProt O14757)", "sequence (O14757 whole entry)": "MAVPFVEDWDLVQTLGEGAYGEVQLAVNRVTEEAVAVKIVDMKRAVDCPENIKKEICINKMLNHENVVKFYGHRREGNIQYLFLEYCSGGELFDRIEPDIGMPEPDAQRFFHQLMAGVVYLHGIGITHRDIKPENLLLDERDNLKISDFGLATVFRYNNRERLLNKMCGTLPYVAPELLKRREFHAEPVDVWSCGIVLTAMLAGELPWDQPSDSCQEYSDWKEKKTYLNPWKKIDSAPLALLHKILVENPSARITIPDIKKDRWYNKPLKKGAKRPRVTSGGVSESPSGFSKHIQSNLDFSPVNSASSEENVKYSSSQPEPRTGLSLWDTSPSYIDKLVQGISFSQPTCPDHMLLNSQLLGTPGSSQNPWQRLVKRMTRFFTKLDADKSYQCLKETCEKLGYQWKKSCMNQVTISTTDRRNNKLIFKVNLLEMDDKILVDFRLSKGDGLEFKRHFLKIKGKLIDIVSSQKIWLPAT", "conditions": "UCN-01 1 μM added into the kinase reaction; Chk1 immunoprecipitated from U-2-OS lysates", "description": "(§1) FIG. 3. […] Asynchronous SAOS-2 cells were irradiated with UV (15 J/m^2) or left untreated. Cells were harvested 2 hours later and lysates were subjected to immunoblotting and phosphatase activity measurements. […] After an additional 2 hours, cells were lysed and analyzed for levels and complexes of HACdc25A and Chk1 as indicated. […] Chk1 was immunoprecipitated from lysates of U-2-OS cells treated as in (B), and its activity determined in an in vitro kinase assay in the presence or absence of the Chk1 inhibitor, UCN-01 (1 μM), using purified GST-Cdc25A as a substrate.\n(§2) Immunochemical techniques: Antibodies used in this study: Mouse monoclonal antibodies against human Cdc25A (DCS-122, DCS-124) and F-6 (Santa Cruz), Cdc25B (DCS-162, DCS-164) and Cdc25C (DCS-193) full length proteins fused to GST were generated by means of established hybridoma technology as described. Rabbit polyclonal antobody against Cdc25C (SC-327) were purchased from Santa Cruz. Antiserum against cdk2 Tyr15 was obtained from Calbiochem."}, "Chk1/Cdc25A": {"tested_on": "Chk1/Cdc25A", "assay": "Chk1/Cdc25A association (co-immunoprecipitation) in UV-irradiated U-2-OS cells transfected with HA-Cdc25A", "assay_type": "cell-based, human", "conditions": "caffeine 10 mM, 1 hour preincubation before UV (15 J/m^2), lysed 2 hours later", "description": "as §1, §2"}, "[3]": {"tested_on": "tyrosine phosphatases including Cdc25", "description": "as §2"}, "[4]": {"conditions": "UCN-01 at the time of UV irradiation (15 J/m^2), U-2-OS"}},
  "note": "Entries after “also recorded” stand apart in the source; their conditions may differ. Non-standard residues stand in square brackets, D forms with d. Residues, ends and D or L forms follow the SMILES beside them. Nle = CCCC[C@H](N)C(=O)O",
  "data": [
    {"compound": "CCCC[C@@H](C=O)NC(=O)[C@H](CC(C)C)NC(=O)[C@H](CC(C)C)NC(C)=O", "note": "[LLnL] (Ac-Leu-Leu-[Nle]-aldehyde)", "values": [
      {"measurement": "UV-induced reduction of Cdc25A protein level", "setting": "Cdc25A [1]; LLnL 25 μg/ml added immediately after UV (15 J/m^2), U-2-OS (endogenous) and U-2-OS/B3C4 (ectopic Cdc25A), lysates 1 hour after UV", "value": "entirely prevented"},
      {"measurement": "UV-induced reduction of Cdc25A phosphatase activity", "setting": "Cdc25A [2]; LLnL 25 μg/ml added immediately after UV (15 J/m^2), endogenous and ectopic Cdc25A, 1 hour after UV", "value": "entirely prevented"}
    ]},
    {"compound": "CN[C@@H]1C[C@H]2O[C@@](C)([C@@H]1OC)n1c3ccccc3c3c4c(c5c6ccccc6n2c5c31)C(=O)N[C@@H]4O", "note": "[UCN-01]", "values": [
      {"measurement": "basal and UV-induced Chk1 kinase activities towards GST-Cdc25A", "setting": "Chk1", "value": "completely inhibited"},
      {"measurement": "UV-induced degradation of the endogenous Cdc25A protein", "setting": "Cdc25A [1]; [4]", "value": "completely abolished; also recorded: prevented"},
      {"measurement": "Cdc25A-associated phosphatase activity after UV", "setting": "Cdc25A [2]; [4]", "value": "allowed maintenance of high"}
    ]},
    {"compound": "Cn1c(=O)c2c(ncn2C)n(C)c1=O", "note": "[caffeine]", "values": [
      {"measurement": "UV-induced increase in Chk1/Cdc25A association", "setting": "Chk1/Cdc25A", "value": "quantitatively prevented"},
      {"measurement": "half-life of the Cdc25A protein after UV", "setting": "Cdc25A [1]; caffeine prior to UV irradiation, compared to non-irradiated cells", "value": "restored"}
    ]},
    {"compound": "sodium vanadate", "values": [
      {"measurement": "ability of mock-treated cell lysates to dephosphorylate and superactivate cyclin E/cdk2", "setting": "[3]", "value": "completely prevented"}
    ]}
  ]
}
